A word on the IC50: it is the concentration that inhibits the measured activity by half.

human MDM2 protein (amino acids 2-188), sequence (Q00987 2-188): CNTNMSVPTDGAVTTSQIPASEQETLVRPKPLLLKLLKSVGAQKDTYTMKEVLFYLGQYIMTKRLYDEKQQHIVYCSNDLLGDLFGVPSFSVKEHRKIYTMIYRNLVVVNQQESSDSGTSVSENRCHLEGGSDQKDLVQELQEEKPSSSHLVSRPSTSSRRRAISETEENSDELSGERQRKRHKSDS

This assay deals with human MDM2 protein (amino acids 2-188) (Homo sapiens (Human), UniProt Q00987). Kind of assay: TR-FRET assay, p53-MDM2 Assay 2 (modified). In kind it is binding. Conditions: TR-FRET; 0.1 nM MDM2, 0.1 nM Europium labeled streptavidin, Tecan genios Pro reader; read-out: IC50 p53-MDM2 Assay 2. The procedure, abridged:
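Biotinylated human MDM2 (aa 2–188, 1.25 nM) was preincubated 15 min at room temperature with 0.625 nM Eu-streptavidin, then 10 nM Cy5-p53 peptide (aa 18–26) added for 15 min. TR-FRET ratio 665/620 nm (excitation 340 nm) was read; IC50 came from curve fitting.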
For the molecule `COC[C@@H](C)n1c(-c2cnc(OC)nc2OC)cc2c1C(c1ccc(Cl)cc1)N(c1cc(Cl)c(=O)n(C)c1)C2=O` (stereo partly drawn) [Example 225], the IC50 amounted to 0.277 nM. With `COc1ncc(-c2cc3c(n2C(C)C)[C@@H](c2ccc(C#N)cc2)N(c2cc(Cl)c(=O)n(C)c2)C3=O)c(OC)n1` [Example 187, 4-[(R)-5-(5-Chloro-1-methyl-6-oxo-1,6-dihydro-pyridin-3-yl)-2-(2,4-dimethoxy-pyrimidin-5-yl)-1-isopropyl-4-oxo-1,4,5,6-tetrahydro-pyrrolo[3,4-b]pyrrol-6-yl]-benzonitrile] the figure was 144 nM; with `COc1ccc(C(=O)N2CCOCC2)cc1-c1cc2c(n1C(C)C)C(c1ccc(Cl)cc1)N(c1cc(Cl)c(=O)n(C)c1)C2=O` (stereo not drawn) [Example 47, 5-(5-Chloro-1-methyl-6-oxo-1,6-dihydro-pyridin-3-yl)-6-(4-chloro-phenyl)-1-isopropyl-2-[2-methoxy-5-(morpholine-4-carbonyl)-phenyl]-5,6-dihydro-1H-pyrrolo[3,4-B]pyrrol-4-one], 0.15 nM.

Consider `CNC(=O)c1ccc(OC)c(-c2cc3c(n2C(C)C)C(c2ccc(Cl)cc2)N([C@H]2CC[C@H](O)CC2)C3=O)c1` (stereo partly drawn) [Example 64, 3-[6-(4-Chloro-phenyl)-5-(trans-4-hydroxy-cyclohexyl)-1-isopropyl-4-oxo-1,4,5,6-tetrahydro-pyrrolo[3,4-b]pyrrol-2-yl]-4-methoxy-N-methyl-benzamide], for which the IC50 came out at 1 nM. For `CNC(=O)c1ccc(OC)c(-c2cc3c(n2C(C)C)C(c2ccc(Cl)cc2)N(c2ccc(F)c(Cl)c2)C3=O)c1` (stereo not drawn) [Example 53, 3-[5-(3-Chloro-4-fluoro-phenyl)-6-(4-chloro-phenyl)-1-isopropyl-4-oxo-1,4,5,6-tetrahydro-pyrrolo[3,4-b]pyrrol-2-yl]-4-methoxy-N-methyl-benzamide] the value was 0.323 nM; for `COc1ccc(CO)cc1-c1cc2c(n1C(C)C)C(c1ccc(Cl)cc1)N(c1cc(Cl)ccc1C)C2=O` (stereo not drawn) [Example 11, 5-(5-Chloro-2-methyl-phenyl)-6-(4-chloro-phenyl)-2-(5-hydroxymethyl-2-methoxy-phenyl)-1-isopropyl-5,6-dihydro-1H-pyrrolo[3,4-b]pyrrol-4-one], 0.113 nM; for `COc1ccc(CC(=O)O)cc1-c1cc2c(n1C(C)C)[C@@H](c1ccc(Cl)cc1)N(c1cc(Cl)ccc1C)C2=O` [Example 92, {3-[(R)-5-(5-Chloro-2-methyl-phenyl)-6-(4-chloro-phenyl)-1-isopropyl-4-oxo-1,4,5,6-tetrahydro-pyrrolo[3,4-b]pyrrol-2-yl]-4-methoxy-phenyl}-acetic acid], 41.9 nM. Take `CNS(=O)(=O)c1ccc(OC)c(-c2cc3c(n2C(C)C)C(c2ccc(Cl)cc2)N(c2cc(Cl)ccc2C)C3=O)c1` (stereo not drawn) [Example 62, 3-[5-(5-Chloro-2-methyl-phenyl)-6-(4-chloro-phenyl)-1-isopropyl-4-oxo-1,4,5,6-tetrahydro-pyrrolo[3,4-b]pyrrol-2-yl]-4-methoxy-N-methyl-benzenesulfonamide]: the IC50 stood at 0.169 nM. With `CNC(=O)c1ccc(OC)c(-c2cc3c(n2C(C)C)[C@H](c2ccc(Cl)cc2)N(c2cc(Cl)ccc2C)C3=O)c1` [Example 18, 3-[(S)-5-(5-Chloro-2-methyl-phenyl)-6-(4-chloro-phenyl)-1-isopropyl-4-oxo-1,4,5,6-tetrahydro-pyrrolo[3,4-b]pyrrol-2-yl]-4-methoxy-N-methyl-benzamide] the figure was 0.095 nM; with `COc1nc(N(C)C)ncc1-c1cc2c(n1C(C)C)C(c1ccc(Cl)cc1)N(c1c(F)c(C)nn1C)C2=O` (stereo not drawn) [Example 209, 6-(4-Chloro-phenyl)-2-(2-dimethylamino-4-methoxy-pyrimidin-5-yl)-5-(4-fluoro-2,5-dimethyl-2H-pyrazol-3-yl)-1-isopropyl-5,6-dihydro-1H-pyrrolo[3,4-b]pyrrol-4-one], 0.158 nM; with `COc1nc(N(C)C)ncc1-c1cc2c(n1C(C)C)C(c1ccc(Cl)cn1)N(c1cccc(Cl)c1F)C2=O` (stereo not drawn) [Example 234, 5-(3-Chloro-2-fluorophenyl)-6-(5-chloropyridin-2-yl)-2-(2-(dimethylamino)-4-methoxypyrimidin-5-yl)-1-isopropyl-5,6-dihydropyrrolo[3,4-b]pyrrol-4(1H)-one], 0.657 nM. For `COc1ncc(-c2cc3c(n2C(C)C)C(c2ccc(Cl)c(F)c2)N(c2cc(Cl)cn(C)c2=O)C3=O)c(OC)n1` (stereo not drawn) [Example 196, 6-(4-Chloro-3-fluoro-phenyl)-5-(5-chloro-1-methyl-2-oxo-1,2-dihydro-pyridin-3-yl)-2-(2,4-dimethoxy-pyrimidin-5-yl)-1-isopropyl-5,6-dihydro-1H-pyrrolo[3,4-b]pyrrol-4-one] the value was 0.395 nM; for `COc1nc(N(C)C)ncc1-c1cc2c(n1C(C)C)[C@@H](c1ccc(Cl)c(F)c1)N(c1cc(Cl)c[nH]c1=O)C2=O` [Example 228, (R)-6-(4-Chloro-3-fluoro-phenyl)-5-(5-chloro-2-oxo-1,2-dihydro-pyridin-3-yl)-2-(2-dimethylamino-4-methoxy-pyrimidin-5-yl)-1-isopropyl-5,6-dihydro-1H-pyrrolo[3,4-b]pyrrol-4-one], 48.7 nM; for `COc1ncc(-c2cc3c(n2C(C)C)[C@@H](c2ccc(C#N)cc2)N(c2cc(Cl)cn(C)c2=O)C3=O)c(OC)n1` [Example 216, 4-[(R)-5-(5-Chloro-1-methyl-2-oxo-1,2-dihydro-pyridin-3-yl)-2-(2,4-dimethoxy-pyrimidin-5-yl)-1-isopropyl-4-oxo-1,4,5,6-tetrahydro-pyrrolo[3,4-b]pyrrol-6-yl]-benzonitrile], 883 nM. Consider `[2H]C([2H])([2H])Oc1ncc(-c2cc3c(n2C(C)C)[C@H](c2ccc(Cl)cc2)N(c2cc(Cl)c(=O)n(C)c2)C3=O)c(OC([2H])([2H])[2H])n1` [Example 218, (S)-5-(5-Chloro-1-methyl-6-oxo-1,6-dihydro-pyridin-3-yl)-6-(4-chloro-phenyl)-2-(2,4-d6-dimethoxy-pyrimidin-5-yl)-1-isopropyl-5,6-dihydro-1H-pyrrolo[3,4-b]pyrrol-4-one], for which the IC50 was 0.106 nM. For the molecule `COc1nc(N(C)C)ncc1-c1cc2c(n1C(C)C)C(c1ccc(C#N)cc1)N(c1cccc(Cl)c1F)C2=O` (stereo not drawn) [Example 94, 4-[5-(3-Chloro-2-fluoro-phenyl)-2-(2-dimethylamino-4-methoxy-pyrimidin-5-yl)-1-isopropyl-4-oxo-1,4,5,6-tetrahydro-pyrrolo[3,4-b]pyrrol-6-yl]-benzonitrile], the IC50 was found to be 0.188 nM. With `CNc1ncc(-c2cc3c(n2C(C)C)C(c2ccc(C#N)cc2)N(c2cc(Cl)cn(C)c2=O)C3=O)c(OC)n1` (stereo not drawn) [Example 130, 4-[5-(5-Chloro-1-methyl-2-oxo-1,2-dihydro-pyridin-3-yl)-1-isopropyl-2-(4-methoxy-2-methylamino-pyrimidin-5-yl)-4-oxo-1,4,5,6-tetrahydro-pyrrolo[3,4-b]pyrrol-6-yl]-benzonitrile] the figure was 1.08 nM. Regarding `COc1ccc(-c2nnn[nH]2)cc1-c1cc2c(n1C(C)C)C(c1ccc(Cl)cc1)N(c1cc(Cl)ccc1C)C2=O` (stereo not drawn) [Example 34, 5-(5-Chloro-2-methyl-phenyl)-6-(4-chloro-phenyl)-1-isopropyl-2-[2-methoxy-5-(1H-tetrazol-5-yl)-phenyl]-5,6-dihydro-1H-pyrrolo[3,4-b]pyrrol-4-one], the IC50 was 0.188 nM. For `COc1cnc(CC#N)cc1-c1cc2c(n1C(C)C)C(c1ccc(C#N)cc1)N(c1cccc(Cl)c1F)C2=O` (stereo not drawn) [Example 87, 4-[5-(3-Chloro-2-fluoro-phenyl)-2-(2-cyanomethyl-5-methoxy-pyridin-4-yl)-1-isopropyl-4-oxo-1,4,5,6-tetrahydro-pyrrolo[3,4-b]pyrrol-6-yl]-benzonitrile] the value was 0.359 nM; for `COc1ncc(-c2cc3c(n2C(C)C)C(c2ccc(Cl)cc2)N(c2cc(Cl)ccc2C#N)C3=O)c(OC)n1` (stereo not drawn) [Example 98, 4-Chloro-2-[6-(4-chloro-phenyl)-2-(2,4-dimethoxy-pyrimidin-5-yl)-1-isopropyl-4-oxo-4,6-dihydro-1H-pyrrolo[3,4-b]pyrrol-5-yl]-benzonitrile], 0.316 nM. With `CNC(=O)Cc1cc(-c2cc3c(n2C(C)C)C(c2ccc(C#N)cc2)N(c2cccc(Cl)c2F)C3=O)c(OC)cn1` (stereo not drawn) [Example 86, 2-{4-[5-(3-Chloro-2-fluoro-phenyl)-6-(4-cyano-phenyl)-1-isopropyl-4-oxo-1,4,5,6-tetrahydro-pyrrolo[3,4-b]pyrrol-2-yl]-5-methoxy-pyridin-2-yl}-N-methyl-acetamide] the figure was 0.334 nM; with `COc1nc(N(C)C)ncc1-c1cc2c(n1C(C)C)C(c1ccc(Cl)c(F)c1)N(c1cc(Cl)c(=O)n(C)c1)C2=O` (stereo not drawn) [Example 193, 6-(4-Chloro-3-fluoro-phenyl)-5-(5-chloro-1-methyl-6-oxo-1,6-dihydro-pyridin-3-yl)-2-(2-dimethylamino-4-methoxy-pyrimidin-5-yl)-1-isopropyl-5,6-dihydro-1H-pyrrolo[3,4-b]pyrrol-4-one], 0.139 nM. For `COc1ccc(CO)cc1-c1cc2c(n1C(C)C)C(c1ccc(Cl)cc1C)N(c1cccc(Cl)c1F)C2=O` (stereo not drawn) [Example 4, 5-(3-Chloro-2-fluoro-phenyl)-6-(4-chloro-2-methyl-phenyl)-2-(5-hydroxymethyl-2-methoxy-phenyl)-1-isopropyl-5,6-dihydro-1H-pyrrolo[3,4-b]pyrrol-4-one] the value was 0.286 nM. On to `COc1nc(N(C)C)ncc1-c1cc2c(n1C(C)C)C(c1ccc(Cl)cc1)N(c1cc(Cl)c(=O)n(C)c1)C2=O` (stereo not drawn) [Example 52, 5-(5-Chloro-1-methyl-6-oxo-1,6-dihydro-pyridin-3-yl)-6-(4-chloro-phenyl)-2-(2-dimethylamino-4-methoxy-pyrimidin-5-yl)-1-isopropyl-5,6-dihydro-1H-pyrrolo[3,4-b]pyrrol-4-one], for which the IC50 worked out at 0.137 nM.
